In publication PMC5845353, “The selective cathepsin K inhibitor MIV-711 attenuates joint pathology in experimental animal models of osteoarthritis” (Journal of Translational Medicine, 2018):

Experiments:
[1] = system: dogs subjected to partial medial meniscectomy; experiment: Dog partial medial meniscectomy study, tibial cartilage lesion area by imaging analysis of photographs; type: in vivo; conditions: 30 µmol/kg
Description: Dogs subjected to partial medial meniscectomy received either 30 µmol/kg MIV-711 (synthesized by Medivir and given as a suspension in 1% Methocel A4C; n = 15) or vehicle (1% Methocel A4C; n = 15) by orogastric gavage once daily in the morning. […] Dosing started the day before surgery and lasted through Day 28, the day before necropsy. Each dog was fasted for at least 12 h before dosing and food were returned approximately 4 h following test article administration.
All animals were humanely euthanized on Day 29 to collect specimens for pathology. Following sedation with acepromazine, euthanasia was performed via injection of a pentobarbital-based euthanasia solution (≥ 88 mg/kg pentobarbital). At study termination, the left (operated) knee was opened, disarticulated and the lesions on the medial tibia and femur measured, described and photographed. The observers were blinded to the treatment. Photographs were used (with or without India Ink lesion enhancement) to determine % area of lesions on each medial tibial plateau. Lesions were classified as more severe or less severe depending on the intensity of India ink staining or perception of depth and areas for each calculated. Gross cartilage lesions were measured (length × width) and described as superficial, moderate, or deep. Gross subjective cartilage degeneration scores were assigned for the medial and lateral tibial and femoral compartments as follows based on lesion measurements (see above): 0: normal, 1: superficial degeneration up to 10 mm^2, 2: superficial degeneration greater than 10 mm^2, 3: moderate depth degeneration up to 15 mm^2, 4: moderate depth degeneration greater than 15 mm^2. Subjective scores for the various regions were then used to generate an overall index of subjective cartilage degeneration for each region for each animal. Actual measurements of cartilage lesions were used to derive a calculated set of data points based on length × width × depth score (with depth score of 1 = superficial, 2 = medium, and 3 = deep, based on gross description). Percent of more or less severe tibial lesion area was determined from photographs taken at necropsy.

[2] = system: rabbits subjected to anterior cruciate ligament transection (ACLT); experiment: Rabbit ACLT study, contrast-enhanced µCT of articular cartilage; type: in vivo
Text: The animals were acquired following review and approval by the Institutional Animal Care and Use Committee (IACUC) at Numira (Salt Lake City, UT). The protocol was also reviewed and approved by the IACUC at Ibex Preclinical Research Inc. (Logan, UT). Male, New Zealand White rabbits (n = 32) were purchased from the Western Oregon Rabbit Co. (Philomath, OR). The animals were approximately 9 months old, weighed 3.7–4.5 kg at the start of the experiment and were randomized into four treatment groups based on body weight.
Pre-operative butorphanol (0.5–1.0 mg/kg, i.m.) for analgesia and glycopyrrolate (~ 0.1 mg/kg i.m.) were administered up to 15 min prior to induction. Anesthesia was induced by a mixture of ketamine (20–40 mg/kg, i.m.) and xylazine (5–10 mg/kg, i.m.), followed by placement of an endotracheal tube. General anesthesia was maintained with isoflurane. Perioperative cefazolin (40 mg/kg, i.v.) was administered, and […] (0.2 mg/kg, i.v.) was administered to reverse the effects of xylazine after endotracheal intubation was complete. A fentanyl patch (25 µg/h) was placed on a clipped area of the skin to provide post-operative analgesia. An incision of 1.5–2.5 cm was made in the skin over the medial side of the right knee under aseptic conditions. The patella was dislocated laterally and the knee placed in full flexion. The anterior cruciate ligament (ACL) was visualized and transected with an appropriate blade. In sham animals, the ACL was visualized but not transected. The joint was irrigated with sterile saline and closed. The muscle and skin were closed with suture and/or surgical glue. Butorphanol (0.5–1 mg/kg, i.m.) was administered after extubation to provide supplemental analgesia. The animals were then individually housed in stainless steel or plastic cages.
Starting 1 week after sham operation or ACLT, animals were dosed daily for 7 weeks by oral gavage with either MIV-711 (synthesized by Medivir and given as a suspension in 1% Methocel A4C in water) or vehicle (1% Methocel A4C in water) at a dose volume of 4 mL/kg. The four treatment groups (n = 7 in each group) were: (1) sham + vehicle; (2) ACLT + vehicle; (3) ACLT + MIV-711, 30 µmol/kg (low dose) and (4) ACLT + MIV-711, 100 µmol/kg (high dose).
Femora and tibias from all animals were subjected to µCT scanning without and with contrast reagent, to visualize bone and cartilage, respectively. Samples were scanned on a high-resolution, volumetric µCT scanner (μCT40, ScanCo Medical, Zurich, CH). The image data was acquired with the following parameters: 36 μm isotropic voxel resolution at 300 ms exposure time, 2000 views and 1 frame per view. Each sample was scanned twice, once for acquiring bone data and once for soft tissue data. After the bone scans, the knees were stained using hexabrix for contrast-enhanced imaging of the cartilage. The µCT-generated DICOM files were used to analyze the samples and to create volume renderings of the regions of interest (ROI). The raw data files were converted into a file format compatible with the segmentation software VHLab (Numira). VHLab was used for segmenting out the regions of interest (osteophyte, cartilage, and subchondral bone) for the femur and tibia of each sample. A region spanning 9 mm of the articulating surface of the femur and 6.5 mm of the tibia was selected for segmenting out the cartilage and subchondral bone in the anterior–posterior direction. After the segmentation process, the voxel count associated with each of the regions of interest was calculated using VHLab. The voxel count was then multiplied by the cubic voxel resolution to obtain volume measurements for the different ROI. Cartilage thickness was calculated using SCIRun (Scientific Computing and Imaging Institute, University of Utah). The distance from the bone to the outer surface of the articulating cartilage was calculated. An image was generated that translates the distances into a color map for viewing the thickness along the length of the cartilage. […]

C#C[C@@H]1CN(C(=O)[C@H](CC(C)C)NC(=O)c2ccc(-c3nc(N4CCN(C)CC4)sc3F)cc2)[C@@H]2C(=O)CO[C@H]12 [MIV-711]
Total lesion area, reduction vs vehicle (printed in Fig. 7) ([1]; dog, left tibia plateau): 26%
proportion of tibial cartilage affected by lesions (lesioned area) ([1]; dog, left tibia plateau, vehicle 21.0% ± 2.6): 15.5%
area of severe lesions, lower than vehicle group ([1]; dog, p = 0.08): 80%
dogs with severe tibial cartilage lesions ([1]; dog, vehicle 6/15): 3/15
area of severe tibial cartilage lesions ([1]; three dogs with severe lesions, vehicle 10 ± 4%): 2 ± 1%
Cartilage Thickness, Lateral ([2]; Femur, high dose 100 µmol/kg): 251 ± 12 µm
Cartilage Thickness, Medial ([2]; Femur, high dose 100 µmol/kg): 306 ± 12 µm
Cartilage Thickness, Total ([2]; Femur, high dose 100 µmol/kg): 278 ± 11 µm
Cartilage Volume, Lateral ([2]; Femur, high dose 100 µmol/kg): 23.0 ± 1.1 mm^3
Cartilage Volume, Medial ([2]; Femur, high dose 100 µmol/kg): 27.2 ± 1.6 mm^3
Cartilage Volume, Total ([2]; Femur, high dose 100 µmol/kg): 50.2 ± 2.2 mm^3
Cartilage Thickness, Lateral ([2]; Femur, low dose 30 µmol/kg): 257 ± 13 µm
Cartilage Thickness, Medial ([2]; Femur, low dose 30 µmol/kg): 310 ± 18 µm
Cartilage Thickness, Total ([2]; Femur, low dose 30 µmol/kg): 283 ± 15 µm
Cartilage Volume, Lateral ([2]; Femur, low dose 30 µmol/kg): 23.1 ± 1.1 mm^3
Cartilage Volume, Medial ([2]; Femur, low dose 30 µmol/kg): 27.5 ± 2.6 mm^3
Cartilage Volume, Total ([2]; Femur, low dose 30 µmol/kg): 50.6 ± 3.5 mm^3
Cartilage Thickness, Lateral ([2]; Tibia, high dose 100 µmol/kg): 369 ± 24 µm
Cartilage Thickness, Medial ([2]; Tibia, high dose 100 µmol/kg): 539 ± 25 µm
Cartilage Thickness, Total ([2]; Tibia, high dose 100 µmol/kg): 445 ± 22 µm
Cartilage Volume, Lateral ([2]; Tibia, high dose 100 µmol/kg): 21.6 ± 2.0 mm^3
Cartilage Volume, Medial ([2]; Tibia, high dose 100 µmol/kg): 25.3 ± 1.2 mm^3
Cartilage Volume, Total ([2]; Tibia, high dose 100 µmol/kg): 46.9 ± 3.1 mm^3
Cartilage Thickness, Lateral ([2]; Tibia, low dose 30 µmol/kg): 349 ± 18 µm
Cartilage Thickness, Medial ([2]; Tibia, low dose 30 µmol/kg): 533 ± 26 µm
Cartilage Thickness, Total ([2]; Tibia, low dose 30 µmol/kg): 432 ± 20 µm
Cartilage Volume, Lateral ([2]; Tibia, low dose 30 µmol/kg): 19.6 ± 1.3 mm^3
Cartilage Volume, Medial ([2]; Tibia, low dose 30 µmol/kg): 24.9 ± 1.5 mm^3
Cartilage Volume, Total ([2]; Tibia, low dose 30 µmol/kg): 44.5 ± 2.6 mm^3
